Data published in patent publication US9540615B2, “Combined chemical and genetic approaches for generation of induced pluripotent stem cells” (The Scripps Research Institute, priority 2008, dated 2017).

Tested on: OG2 MEFs transduced with OK (Oct4 and Klf4)
Assay: iPSC generation from OK-transduced OG2 MEFs (GFP+ colonies), including second synergist screen with BIX
Type: cell-based, mouse
Conditions: OK transduced OG2 MEFs; 3 independent experiments, standard deviation; OK alone 0.5±0.7
Protocol: Primary 129S2/SvPasCrlf (primary screen) or ROSA26^+/−/OG2^+/− (secondary screen) MEFs were plated onto Matrigel (1:50; BD Biosciences, Bedford, Mass.) coated dishes at a density of 3.5×10^4 cells per well of a 6-well plate. Twenty-four hours later, these cells were transduced overnight with defined retroviruses at 37° C., 5% CO2. Twelve to fourteen hours later, the media on the transduced cells was changed to mESC medium [Knockout DMEM, 10% ES-qualified FBS, 10% Knockout serum replacement, 1% Glutamax, 1% Non-essential amino acids, penicillin/streptomycin, 0.1 mM β-mercaptoethanol, 1% EmbryoMax ESC Qualified Nucleosides (Millipore, Temecula, Calif.), and 10^3 U/ml LIF (Millipore)] (all products were from Invitrogen, Carlsbad, Calif., except where mentioned). On that same day, individual small molecules from our known drug collection were added to the cells at a range between 0.5 and 2 μM. Compound treatment was continued for 10-14 days; the cells were fixed and stained on day 14-21 using a standard ALP detection kit (Millipore). For the second screen, 1 μM BIX was added to the mESC medium 1 day after transduction. Five days later, in addition to 1 μM BIX, individual small molecule from the known drug collection was added to each well, at a range between 0.5 and 2 μM. Mouse ESC media with defined small molecules was refreshed every three days until colonies with a similar morphology to mESCs were observed, which was usually between 14-21 days after transduction. […] Further characterization studies and repeats were carried either on primary 129S2/SvPasCrlf or ROSA26^+/−/OG2^+/− MEFs. When ROSA26^+/−/OG2^+/− MEFs were used, the iPSC colonies could also be identified through GFP expression, as a marker of Oct4 expression. Once iPSC colonies were identified, they were picked for expansion on MEF feeder cells in mESC medium.

COc1cc2nc(N3CCCN(C)CC3)nc(NC3CCN(Cc4ccccc4)CC3)c2cc1OC [BIX01294]
number of GFP+ colonies (reprogramming efficiency): 2.5±0.7 colonies per 3.5×10^4 cells
